According to the NIST ThermoML archive (doi:10.1021/je100594u):
Values joined by “and” are separate entries in the source; they are usually repeats but may differ in a detail not shown here. Equal entries are not always repeated.

Key:
[1] = 298.15 K, 101.3 kPa, Liquid; for viscosity: Capillary tube (Ostwald / Ubbelohde) method; for speed of sound: Linear variable-path acoustic interferometer; for mass density: Pycnometric method
[2] = refractive index (Na D-line) (dimensionless); conditions: 298.15 K; 101.33 kPa; Liquid
[3] = refractive index (Na D-line) (dimensionless); xn = mol fraction of the nth substance listed; conditions: 298.15 K, 101.3 kPa, Liquid
[4] = xn = mol fraction of the nth substance listed; conditions: 298.15 K, 101.3 kPa, Liquid; for viscosity: Capillary tube (Ostwald / Ubbelohde) method; for speed of sound: Linear variable-path acoustic interferometer; for mass density: Pycnometric method

CCCCCO [pentan-1-ol]
Conditions	mass density [kg/m3]	refractive index	speed of sound [m/s]	viscosity
[1]	811.2	–	1271.6	3.504 mPa·s and 3.404 mPa·s
[2]	–	1.41	–	–

C1COCO1 [1,3-dioxolane] + CCCCCO
Conditions	mass density, [4] [kg/m3]	refractive index, [3]	speed of sound, [4] [m/s]	viscosity, [4] [mPa·s]
x1 = 0.1168	832.9	1.4085	1278.8	2.505
x1 = 0.2293	854.5	1.4072	1287.5	1.885
x1 = 0.3377	876.6	1.406	1296.8	1.44
x1 = 0.4424	899.2	1.405	1305	1.063
x1 = 0.5434	922.5	1.404	1313.4	0.9063
x1 = 0.6409	946.8	1.403	1321.5	0.756
x1 = 0.7352	972.5	1.4022	1327.1	0.6472
x1 = 0.8264	999.3	1.401	1332.7	0.5704
x1 = 0.9146	1028.2	1.4	1337	0.5413
x1 = 1	1058.7	1.3985	1339.5	0.5894

CCCCCO [pentan-1-ol] + CCOCC
x2 = 0
Conditions	mass density [kg/m3]	refractive index	speed of sound [m/s]	viscosity [mPa·s]
[3]	–	1.41	–	–
[4]	811.2	–	1271.6	3.504

CCOCC [diethyl ether]
Conditions	mass density [kg/m3]	refractive index	speed of sound [m/s]	viscosity [mPa·s]
[1]	708.3	–	982.3	0.2469
[2]	–	1.3515	–	–

CCOCC [diethyl ether] + C1COCO1
Conditions	mass density, [4] [kg/m3]	refractive index, [3]	speed of sound, [4]	viscosity, [4] [mPa·s]
x2 = 0	708.3	1.3515	982.3 m/s	0.2469
x2 = 0.1	736.4	1.3568	1003.9 m/s	0.2656
x2 = 0.2	765.6	1.3604	1033.4 m/s	0.2844
x2 = 0.3001	796.3	1.3649	1067.4 m/s	0.3055
x2 = 0.4001	829	1.3696	1108.5 m/s	0.331
x2 = 0.5001	863.4	1.3743 and 1.375	1152.8 m/s and 1149.2 m/s	0.3604
x2 = 0.6001	899.7	1.3791	1191.4 m/s	0.3944
x2 = 0.7001	938.2	1.3842	1230.9 m/s	0.4345
x2 = 0.8	977	1.3893	1265.3 m/s	0.4784
x2 = 0.9	1018.4	1.3956	1302.4 m/s	0.5305

C1COCO1 [1,3-dioxolane] + CCOCC
x1 = 1
Conditions	mass density [kg/m3]	refractive index	speed of sound [m/s]	viscosity [mPa·s]
[3]	–	1.3985	–	–
[4]	1058.7	–	1339.4	0.5894

CCOCC [diethyl ether] + CCCCCO
Conditions	mass density, [4] [kg/m3]	refractive index, [3]	speed of sound, [4] [m/s]	viscosity, [4] [mPa·s]
x1 = 0.1167	805.2	1.4043	1241.8	2.651
x1 = 0.2292	797.5	1.3977	1216.7	1.966
x1 = 0.3377	788.9	1.3922	1193.9	1.491
x1 = 0.4423	779.7	1.3874	1172.2	1.123
x1 = 0.5433	770.4	1.3825	1141.6	0.8294
x1 = 0.6409	759.5	1.3774	1110.7	0.6199
x1 = 0.7352	747.9	1.3724	1077.3	0.4811
x1 = 0.8263	736.1	1.3664	1046.3	0.382
x1 = 0.9146	723	1.3601	1011.2	0.3141
x1 = 1	708.3	1.3515	982.3	0.2469

C1COCO1 [1,3-dioxolane]
Conditions	mass density [kg/m3]	refractive index	speed of sound	viscosity [mPa·s]
[1]	1058.7	–	1339.4 m/s and 1339.5 m/s	0.5894
[2]	–	1.3985	–	–

CCCCCO [pentan-1-ol] + C1COCO1
x2 = 0
Conditions	mass density [kg/m3]	refractive index	speed of sound [m/s]	viscosity [mPa·s]
[3]	–	1.41	–	–
[4]	811.2	–	1271.6	3.504
